# Measured values as given in patent US10913720B2, “Benzyloxypyridylcyclopropanecarboxylic acids, pharmaceutical compositions and uses thereof” (Boehringer Ingelheim International GmbH, priority 2017, dated 2021).
# pEC50: −log10 of the molar value. Read-outs that look alike come from different tables or passages of the source.
# Assays:
# [1] = Aqueous solubility (buffer vs acetonitrile/water, LC-UV); type: physicochemical; details: kinetic from dmso stock, 2.5% DMSO
# Protocol: The aqueous solubility of the compounds of the invention is determined by comparing the amount dissolved in buffer to the amount in an acetonitrile/water (1/1) solution. Starting from a 10 mM DMSO stock solution aliquots are diluted with acetonitrile/water (1/1) or buffer, respectively. After 24 h of shaking, the solutions are filtrated and analyzed by LC-UV. The amount dissolved in buffer is compared to the amount in the acetonitrile solution.
# Solubility is usually being measured from 0.001 to 0.125 mg/mL at a DMSO concentration of 2.5%. If more than 90% of the compound is dissolved in buffer, the value is marked with “>”.
# [2] = target: human GPR40 receptor (Homo sapiens, UniProt O14842); assay: IP1 accumulation measurements using the IPOne assay system; type: cell-based; details: 1321N1 cells stably expressing human GPR40; 1 h stimulation at 37° C.
# Sequence of human GPR40 receptor (O14842 whole entry): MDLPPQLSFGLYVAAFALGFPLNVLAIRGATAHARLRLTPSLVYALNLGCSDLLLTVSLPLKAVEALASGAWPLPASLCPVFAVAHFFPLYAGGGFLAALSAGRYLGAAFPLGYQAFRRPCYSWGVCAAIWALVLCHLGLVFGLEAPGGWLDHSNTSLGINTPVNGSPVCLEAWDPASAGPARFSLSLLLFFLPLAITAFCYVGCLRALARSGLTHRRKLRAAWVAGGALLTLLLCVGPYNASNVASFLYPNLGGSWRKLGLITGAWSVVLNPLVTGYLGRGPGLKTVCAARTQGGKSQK
# Protocol: IP1 accumulation measurements using the IPOne assay system—1321N1 cells stably expressing human GPR40 receptor (Euroscreen, Belgium) are seeded 24 h before the assay in white 384-well plates in culture medium containing 10% FCS, 1% Na-Pyruvate and 400 μg/mL G418. IP1 is assayed according to the manufacturer's description (Cisbio Bioassays, France). In brief, the assay is started by substitution of the culture medium by stimulation buffer (Hepes 10 mM, CaCl2) 1 mM, MgCl2 0.5 mM, KCl 4.2 mM, NaCl 146 mM, glucose 5.5 mM and LiCl 50 mM, pH 7.4). Cells are stimulated for 1 h at 37° C., 5% CO2 by addition of the compounds that are diluted in stimulation buffer containing LiCl. Assays are stopped by adding HTRF-conjugates (IP1-d2 and Anti-IP1 cryptate Tb) and lysis buffer, provided by the manufacturer. After an incubation time of 1 h at room temperature plates are measured using an EnVision™, Perkin Elmer. The obtained fluorescence ratios at 665/615 […] are then used to calculate the pEC50 values using Assay Explorer 3.3 Software (Accelrys, Inc.) by interpolation using an IP1 reference curve and subsequent sigmoidal curve fitting allowing for a variable hill slope.
# [3] = pH 2.2, 24 h shaking, read-out: Solubility at pH 2.2
# [4] = pH 6.8, 24 h shaking, read-out: Solubility at pH 6.8
smiles,measurement,setting,value
"Cc1cc(-c2nnn(C)n2)cc(C)c1-c1cccc(COc2ccc([C@H]3C[C@@H]3C(=O)O)nc2)c1 [Example 1, (1S,2S)-2-{5-[2′,6′-Dimethyl-4′-(2-methyl-2H-tetrazol-5-yl)-biphenyl-3-ylmethoxy]-pyridin-2-yl}-cyclopropanecarboxylic Acid]",solubility at 24 h,[1]; [3],7 µg/mL
same,solubility at 24 h,[1]; [4],19 µg/mL
same,pEC50,[2],8.30
"Cc1cc(OCCC(C)(C)O)cc(C)c1-c1cccc(COc2ccc([C@H]3C[C@@H]3C(=O)O)nc2)c1 [Example 3, (1S,2S)-2-{5-[4′-(3-Hydroxy-3-methyl-butoxy)-2′,6′-dimethyl-biphenyl-3-ylmethoxy]-pyridin-2-yl}-cyclopropanecarboxylic Acid]",solubility at 24 h,[1]; [3],24 µg/mL
same,solubility at 24 h,[1]; [4],40 µg/mL
same,pEC50,[2],7.72
"Cc1cc(-c2nnn(C)n2)cc(C)c1-c1ccc(F)c2c1CC[C@H]2Oc1ccc([C@H]2C[C@@H]2C(=O)O)cc1 [Example 45 in WO 2013/178575, reference compound]",solubility at 24 h,[1]; [3],< 1 µg/mL
same,solubility at 24 h,[1]; [4],< 1 µg/mL
"Cc1cc(OCCC(C)(C)O)cc(C)c1-c1ccc(F)c2c1CC[C@H]2Oc1ccc([C@H]2C[C@@H]2C(=O)O)cc1 [Example 17 in WO 2013/178575, reference compound]",solubility at 24 h,[1]; [3],< 1 µg/mL
same,solubility at 24 h,[1]; [4],< 1 µg/mL
